For data set [1] the following is noted: cited from earlier work; for HCl solubility: total pressure of 760 mm Hg (101 kPa).
The nature of data set [2]: Solubility of the aromatic diol in organic solvent (equilibrium solubility method). Format: physicochemical. The settings on record: based on the weight of the solution. From the text:
The solubility of the aromatic diol in the organic solvent can be measured by using known procedures. For example, the solubility of the aromatic diol in the organic solvent at a specific temperature can be determined by an equilibrium solubility method, which employs a saturated solution of the aromatic diol, obtained by stirring an excess amount of the aromatic diol in the organic solvent at the specific temperature for a sufficient period of time until equilibrium is achieved. Thereafter, the resulting liquid phase saturated solution, the resulting solid phase, or both liquid and solid phases are analyzed by any conventional analytical method to arrive at the solubility of the aromatic diol in the organic solvent.
In this first embodiment, generally, the aromatic diol has a low solubility in the first organic solvent. […] Accordingly, this embodiment generally requires a) a large quantity of the first organic solvent to solubilize essentially all of the aromatic diol, and/or b) preparation and maintenance of the feed solution at an elevated temperature to increase and maintain solubility of the diol in the feed solution. […]

Where two headings read alike, the source gives them in different places.

Take `CCCCCCCCCC` [n-Decane]: in data set [1] (At 10°C), the HCl solubility was 0.028 Mol/mol organic solvent.
Regarding `Cc1cccc(C)c1` [m-Xylene], the HCl solubility in data set [1] (At 20°C) is reported as 0.071 Mol/mol organic solvent.
For the molecule `Oc1ccccc1-c1ccccc1O` [2,2'-biphenol], the solubility in toluene in data set [2] (at 19°C) turned out to be 2.7 percent by weight; in data set [2] (at 40°C) it was 7.3 percent by weight.
As for `CCCCCCC` [n-Heptane], the values for the HCl solubility in data set [1] (At 10°C) and in data set [1] (At 20°C) were 0.02 Mol/mol organic solvent and 0.015 Mol/mol organic solvent, respectively.
Regarding `Cc1ccc(C)cc1` [p-Xylene], the HCl solubility in data set [1] (At 10°C) is listed as 0.08 Mol/mol organic solvent; in data set [1] (At 20°C) it was 0.064 Mol/mol organic solvent.
For `C1CCOC1` [Tetrahydrofuran], in data set [1] (at 10°C and a total pressure of 760 mm Hg (101 kPa)), the “hydrogen chloride absorbed/dissolved by one mole of solvent” value was 1.38 mol.
For `Clc1ccccc1` [Chlorobenzene], in data set [1] (At 20°C), the HCl solubility is 0.033 Mol/mol organic solvent.
